Laboratory results from US20250304617A1, “COMPOUND, SALT OF COMPOUND, ANTIBODY MODIFICATION REAGENT, METHOD FOR PRODUCING MODIFIED ANTIBODY, AND MODIFIED ANTIBODY” (Kagoshima University, priority 2021, published 2025).

Assay: Examination of stability in DMSO (HPLC purity)
Format: physicochemical
Settings: 20 mg/mL in DMSO
Method: The compound A, the compound B, or the comparative example was dissolved in DMSO at a content of 20 mg/mL, allowed to stand at room temperature or −20° C. for a predetermined time, and analyzed by HPLC.
For the compound A, the compound B, and the comparative example, the ratio of the area of the main peak to the sum of the areas of all peaks (HPLC purity) is shown in Table 1.

For `[N-]=[N+]=NCCCCC1NONC(C(N)=O)CCCCC(NCCCC(=O)C(Cc2ccccc2)NC(=O)CCCC(=O)ON2C(=O)CCC2=O)C(=O)N1` (stereo not shown) [Comparative example, DSG-αZ34C, reference compound], the “HPLC purity (ratio of the area of the main peak to the sum of the areas of all peaks)” value (room temperature, 0 Hours) was 85%, the “HPLC purity (ratio of the area of the main peak to the sum of the areas of all peaks)” value (room temperature, 22 Hours) was 83% and the “HPLC purity (ratio of the area of the main peak to the sum of the areas of all peaks)” value (−20° C., 0 Days) was 92%. The “HPLC purity (ratio of the area of the main peak to the sum of the areas of all peaks)” value (−20° C., 30 Days) was 85%.
